Biological target: GST-Bcl-2 (Homo sapiens (Human), UniProt P10415)
Assay: Time Resolved-Fluorescence Resonance Energy Transfer (TR-FRET) Bcl-2 binding assay
Conditions: not given
Protocol: Determination of the utility of compounds having Formula (I) as binders to and inhibitors of anti-apoptotic Bcl-2 proteins was performed using the Time Resolved-Fluorescence Resonance Energy Transfer (TR-FRET) Assay. Tb-anti-GST antibody was purchased from Invitrogen (Catalog No. PV4216).
(§1) Representative compounds were serially diluted in dimethyl sulfoxide (DMSO) starting at 50 μM (2× starting concentration; 10% DMSO) and 10 μL were transferred into a 384-well plate. The samples are then mixed on a shaker for 1 minute and incubated for an additional 3 hours at room temperature. For each assay, the probe/antibody and protein/probe/antibody were included on each assay plate as negative and positive controls, respectively. Fluorescence was measured on the Envision (Perkin Elmer) using a 340/35 nm excitation filter and 520/525 (F-Bak peptide) and 495/510 nm (Tb-labeled anti-Histidine antibody) emission filters.
as §1, with “The” for “Representative compounds were serially diluted in dimethyl sulfoxide (DMSO) starting at 50 μM (2× starting concentration; 10% DMSO) and 10 μL were transferred into a 384-well plate. The”, “were” for “are”
The inhibition constant (Ki) is the dissociation constant of an enzyme-inhibitor complex or a protein/small molecule complex, wherein the small molecule is inhibiting binding of one protein to another protein. So a large Ki value indicates a low binding affinity and a small Ki value indicates a high binding affinity.

Sequence of GST-Bcl-2 (P10415 whole entry): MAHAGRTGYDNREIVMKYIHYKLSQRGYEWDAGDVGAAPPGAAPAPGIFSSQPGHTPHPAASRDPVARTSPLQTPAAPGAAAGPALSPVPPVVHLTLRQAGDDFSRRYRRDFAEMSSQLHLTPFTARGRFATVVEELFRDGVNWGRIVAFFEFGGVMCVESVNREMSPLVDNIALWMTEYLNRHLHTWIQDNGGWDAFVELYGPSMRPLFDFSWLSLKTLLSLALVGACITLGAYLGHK

Structure (SMILES)	Ki [nM]
CO[C@H]1CC[C@H](CNc2ccc(S(=O)(=O)NC(=O)c3ccc(N4CCN(CC5=C(c6ccc(Cl)cc6)CC(C)(C)CC5)CC4)cc3Oc3ccc(NCC(F)F)nc3)cc2[N+](=O)[O-])CC1 [Example 375, Trans-4-(4-{[2-(4-chlorophenyl)-4,4-dimethylcyclohex-1-en-1-yl]methyl}piperazin-1-yl)-2-({6-[(2,2-difluoroethyl)amino]pyridin-3-yl}oxy)-N-[(4-{[(4-methoxycyclohexyl)methyl]amino}-3-nitrophenyl)sulfonyl]benzamide]	328
CC1(C)CCC(CN2CCN(c3ccc(C(=O)NS(=O)(=O)c4ccc(O[C@H]5CC[C@H](N6CCOCC6)CC5)c([N+](=O)[O-])c4)c(Oc4cc5cc[nH]c5cc4F)c3)CC2)=C(c2ccc(Cl)cc2)C1 [Example 311, Trans-4-(4-{[2-(4-chlorophenyl)-4,4-dimethylcyclohex-1-en-1-yl]methyl}piperazin-1-yl)-2-[(6-fluoro-1H-indol-5-yl)oxy]-N-({4-[(4-morpholin-4-ylcyclohexyl)oxy]-3-nitrophenyl}sulfonyl)benzamide]	0.185
CC1(C)CCC(CN2CCN(c3ccc(C(=O)NS(=O)(=O)c4ccc(N[C@H]5CC[C@H](N(C6CC6)C6CC6)CC5)c([N+](=O)[O-])c4)c(Oc4cc5cc[nH]c5cc4F)c3)CC2)=C(c2ccc(Cl)cc2)C1 [Example 334, Trans-4-(4-{[2-(4-chlorophenyl)-4,4-dimethylcyclohex-1-en-1-yl]methyl}piperazin-1-yl)-N-[(4-{[4-(dicyclopropylamino)cyclohexyl]amino}-3-nitrophenyl)sulfonyl]-2-[(6-fluoro-1H-indol-5-yl)oxy]benzamide]	0.197
CC1(C)CCC(CN2CCN(c3ccc(C(=O)NS(=O)(=O)c4ccc(N[C@H]5CC[C@H](N6CCOCC6)CC5)c([N+](=O)[O-])c4)c(Oc4cccc5c4CCNC5=O)c3)CC2)=C(c2ccc(Cl)cc2)C1 [Example 304, Trans-4-(4-{[2-(4-chlorophenyl)-4,4-dimethylcyclohex-1-en-1-yl]methyl}piperazin-1-yl)-N-({4-[(4-morpholin-4-ylcyclohexyl)amino]-3-nitrophenyl}sulfonyl)-2-[(1-oxo-1,2,3,4-tetrahydroisoquinolin-5-yl)oxy]benzamide]	0.822

Same assay, conditions: GST-Bcl-2 1 nM, F-Bak peptide probe 100 nM, Tb-anti-GST antibody 1 nM; Ki by Wang's equation

Structure (SMILES)	Ki [nM]
CN1CCC(Nc2ccc(S(=O)(=O)NC(=O)c3ccc(N4CCN(CC5=C(c6ccc(Cl)cc6)CC(C)(C)CC5)CC4)cc3Oc3cccc(Cl)c3)cc2[N+](=O)[O-])CC1 [Example 36, 2-(3-chlorophenoxy)-4-(4-((2-(4-chlorophenyl)-4,4-dimethylcyclohex-1-en-1-yl)methyl)piperazin-1-yl)-N-((4-((1-methylpiperidin-4-yl)amino)-3-nitrophenyl)sulfonyl)benzamide]	0.07
O=C(NS(=O)(=O)c1ccc(NCC2CCOCC2)c([N+](=O)[O-])c1)c1ccc(N2CCN(Cc3ccccc3-c3ccc(Cl)cc3)CC2)cc1Oc1ccccc1Cl [Example 5, 4-(4-((4′-chloro-1,1′-biphenyl-2-yl)methyl)piperazin-1-yl)-2-(2-chlorophenoxy)-N-((3-nitro-4-((tetrahydro-2H-pyran-4-ylmethyl)amino)phenyl)sulfonyl)benzamide]	0.746
CC1(C)CCC(CN2CCN(c3ccc(C(=O)NS(=O)(=O)c4ccc(NCC5CCOCC5)c([N+](=O)[O-])c4)c(Oc4ccccc4-c4cccnc4N)c3)CC2)=C(c2ccc(Cl)cc2)C1 [Example 407, 2-[2-(2-aminopyridin-3-yl)phenoxy]-4-(4-{[2-(4-chlorophenyl)-4,4-dimethylcyclohex-1-en-1-yl]methyl}piperazin-1-yl)-N-({3-nitro-4-[(tetrahydro-2H-pyran-4-ylmethyl)amino]phenyl}sulfonyl)benzamide]	0.946
CN1CCC(Nc2ccc(S(=O)(=O)NC(=O)c3ccc(N4CCN(CC5=C(c6ccc(Cl)cc6)CC(C)(C)CC5)CC4)cc3Oc3ccc4nc(N)sc4c3)cc2[N+](=O)[O-])CC1 [Example 229, 2-[(2-amino-1,3-benzothiazol-6-yl)oxy]-4-(4-{[2-(4-chlorophenyl)-4,4-dimethylcyclohex-1-en-1-yl]methyl}piperazin-1-yl)-N-({4-[(1-methylpiperidin-4-yl)amino]-3-nitrophenyl}sulfonyl)benzamide]	1.08
CC1(C)CCC(CN2CCN(c3ccc(C(=O)NS(=O)(=O)c4ccc(NCCCN5CCNC(=O)C5)c([N+](=O)[O-])c4)c(Oc4cc5cc[nH]c5cc4F)c3)CC2)=C(c2ccc(Cl)cc2)C1 [Example 233, 4-(4-{[2-(4-chlorophenyl)-4,4-dimethylcyclohex-1-en-1-yl]methyl}piperazin-1-yl)-2-[(6-fluoro-1H-indol-5-yl)oxy]-N-[(3-nitro-4-{[3-(3-oxopiperazin-1-yl)propyl]amino}phenyl)sulfonyl]benzamide]	0.037
CC1(C)CCC(CN2CCN(c3ccc(C(=O)NS(=O)(=O)c4ccc(OCC5(F)CCN(C6CC6)CC5)c([N+](=O)[O-])c4)c(Oc4cc5cc[nH]c5cc4F)c3)CC2)=C(c2ccc(Cl)cc2)C1 [Example 341, 4-(4-{[2-(4-chlorophenyl)-4,4-dimethylcyclohex-1-en-1-yl]methyl}piperazin-1-yl)-N-({4-[(1-cyclopropyl-4-fluoropiperidin-4-yl)methoxy]-3-nitrophenyl}sulfonyl)-2-[(6-fluoro-1H-indol-5-yl)oxy]benzamide]	0.017
CN(C)CCCNc1ccc(S(=O)(=O)NC(=O)c2ccc(N3CCN(Cc4ccccc4-c4ccc(Cl)cc4)CC3)cc2Oc2cccc(OCc3ccccc3)c2)cc1[N+](=O)[O-] [Example 92, 2-(3-(benzyloxy)phenoxy)-4-(4-((4′-chloro-1,1′-biphenyl-2-yl)methyl)piperazin-1-yl)-N-((4-((3-(dimethylamino)propyl)amino)-3-nitrophenyl)sulfonyl)benzamide]	2.57
CN(C)CCCNc1ccc(S(=O)(=O)NC(=O)c2ccc(N3CCN(CC4=C(c5ccc(Cl)cc5)CC(C)(C)CC4)CC3)cc2Oc2ccccc2F)cc1[N+](=O)[O-] [Example 137, 4-(4-{[2-(4-chlorophenyl)-4,4-dimethylcyclohex-1-en-1-yl]methyl}piperazin-1-yl)-N-[(4-{[3-(dimethylamino)propyl]amino}-3-nitrophenyl)sulfonyl]-2-(2-fluorophenoxy)benzamide]	0.021
CC1(C)CCC(CN2CCN(c3ccc(C(=O)NS(=O)(=O)c4ccc(OCC5(F)CCOCC5)c([N+](=O)[O-])c4)c(Oc4cccc5c4CC(=O)N5)c3)CC2)=C(c2ccc(Cl)cc2)C1 [Example 313, 4-(4-{[2-(4-chlorophenyl)-4,4-dimethylcyclohex-1-en-1-yl]methyl}piperazin-1-yl)-N-({4-[(4-fluorotetrahydro-2H-pyran-4-yl)methoxy]-3-nitrophenyl}sulfonyl)-2-[(2-oxo-2,3-dihydro-1H-indol-4-yl)oxy]benzamide]	< 0.01
CC1(C)CCC(CN2CCN(c3ccc(C(=O)NS(=O)(=O)c4ccc(NC5CCN(C6CCOCC6)CC5)c([N+](=O)[O-])c4)c(Oc4cccc(F)c4)c3)CC2)=C(c2ccc(Cl)cc2)C1 [Example 113, 4-(4-{[2-(4-chlorophenyl)-4,4-dimethylcyclohex-1-en-1-yl]methyl}piperazin-1-yl)-2-(3-fluorophenoxy)-N-({3-nitro-4-[(1-tetrahydro-2H-pyran-4-ylpiperidin-4-yl)amino]phenyl}sulfonyl)benzamide]	0.032
Cc1n[nH]c2cccc(Oc3cc(N4CCN(CC5=C(c6ccc(Cl)cc6)CC(C)(C)CC5)CC4)ccc3C(=O)NS(=O)(=O)c3ccc(NC4CCN(C)CC4)c([N+](=O)[O-])c3)c12 [Example 55, 4-(4-((2-(4-chlorophenyl)-4,4-dimethylcyclohex-1-en-1-yl)methyl)piperazin-1-yl)-2-((3-methyl-1H-indazol-4-yl)oxy)-N-((4-((1-methylpiperidin-4-yl)amino)-3-nitrophenyl)sulfonyl)benzamide]	0.09
CNc1cccc(Oc2cc(N3CCN(Cc4ccccc4-c4ccc(Cl)cc4)CC3)ccc2C(=O)NS(=O)(=O)c2ccc(NCC3CCOCC3)c([N+](=O)[O-])c2)c1 [Example 2, 4-(4-((4′-chloro-1,1′-biphenyl-2-yl)methyl)piperazin-1-yl)-2-(3-(methylamino)phenoxy)-N-((3-nitro-4-((tetrahydro-2H-pyran-4-ylmethyl)amino)phenyl)sulfonyl)benzamide]	31.5
CC1(C)CCC(CN2CCN(c3ccc(C(=O)NS(=O)(=O)c4ccc(NC5CCN(CCN6CCOCC6)CC5)c([N+](=O)[O-])c4)c(Oc4cccc(Cl)c4)c3)CC2)=C(c2ccc(Cl)cc2)C1 [Example 190, 2-(3-chlorophenoxy)-4-(4-{[2-(4-chlorophenyl)-4,4-dimethylcyclohex-1-en-1-yl]methyl}piperazin-1-yl)-N-[(4-{[1-(2-morpholin-4-ylethyl)piperidin-4-yl]amino}-3-nitrophenyl)sulfonyl]benzamide]	0.077
CC1(C)CCC(CN2CCN(c3ccc(C(=O)NS(=O)(=O)c4ccc(NCC5COCCO5)c([N+](=O)[O-])c4)c(Oc4cc5cc[nH]c5cc4F)c3)CC2)=C(c2ccc(Cl)cc2)C1 (stereo not drawn) [Example 292, 4-(4-{[2-(4-chlorophenyl)-4,4-dimethylcyclohex-1-en-1-yl]methyl}piperazin-1-yl)-N-({4-[(1,4-dioxan-2-ylmethyl)amino]-3-nitrophenyl}sulfonyl)-2-[(6-fluoro-1H-indol-5-yl)oxy]benzamide]	0.191
